The supplement of paper PMC4977894
± gives the standard deviation of the averaged measurements.

Key:
[1] = system: Homo sapiens (human subject panel, olfactory perception); experiment: perceived odor pleasantness rating (rating 0-100); higher = more pleasant
Description: (§1)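 Human olfactory psychophysics. 55 healthy subjects (after excluding 6 low performers) sniffed 1 mL of each odorant diluted in paraffin oil (vials, two dilutions per molecule, 20 molecules presented twice). Each subject rated intensity, pleasantness and familiarity on a 0-100 slider, starting at 50 and required to move. Ratings were given only when the subject reported detecting a smell; per-subject ratings are averaged over subjects.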

[2] = system: Homo sapiens (human subject panel, olfactory perception); experiment: perceived odor intensity rating (rating 0-100); higher = stronger perceived smell
Description: as §1

[3] = system: Homo sapiens (human subject panel, olfactory perception); experiment: perceived odor familiarity rating (rating 0-100); higher = more familiar
Description: as §1

[4] = odor dilution in paraffin oil: 1/100,000
[5] = odor dilution in paraffin oil: 1/10,000,000
[6] = odor dilution in paraffin oil: 1/1,000
[7] = odor dilution in paraffin oil: 1/10

| Structure (SMILES) | perceived odor pleasantness rating [1, 4] | perceived odor pleasantness rating [1, 5] | perceived odor intensity rating [2, 4] | perceived odor intensity rating [2, 5] | perceived odor familiarity rating [3, 4] | perceived odor familiarity rating [3, 5] | perceived odor pleasantness rating [1, 6] | perceived odor intensity rating [2, 6] | perceived odor familiarity rating [3, 6] | perceived odor pleasantness rating [1, 7] | perceived odor intensity rating [2, 7] | perceived odor familiarity rating [3, 7] |
| --- | --- | --- | --- | --- | --- | --- | --- | --- | --- | --- | --- | --- |
| Cc1ccnc2ccccc12 [4-Methylquinoline] | 40.5 ± 21 | 49.5 ± 24 | 38.7 ± 30 | 20.8 ± 22 | 33.1 ± 30 | 34.8 ± 28 |  |  |  |  |  |  |
| Cc1cscn1 [4-Methylthiazole] | 32.7 ± 20 |  | 57.3 ± 28 |  | 44.4 ± 29 |  | 29.4 ± 27 | 60.7 ± 30 | 46.8 ± 31 |  |  |  |
| CC(C)CCC(=O)O [4-Methylvaleric acid] | 20.8 ± 22 | 43.3 ± 20 | 58.6 ± 30 | 30.9 ± 30 | 41.8 ± 30 | 32.5 ± 25 |  |  |  |  |  |  |
| CC1=CC(=O)CC(C)(C)C1=O [4-Oxoisophorone] | 55 ± 21 |  | 34 ± 28 |  | 44.2 ± 28 |  | 47.7 ± 25 | 49.2 ± 26 | 49.7 ± 28 |  |  |  |
| C=CCCC(=O)O [4-Pentenoic acid] | 15.7 ± 18 |  | 65 ± 29 |  | 44.9 ± 32 |  | 14.1 ± 18 | 80.5 ± 22 | 48.1 ± 34 |  |  |  |
| C=CCc1ccc(OC)c(OC)c1 [4-allyl-1,2-dimethoxy benzene] | 55.3 ± 24 |  | 17.2 ± 21 |  | 39.8 ± 29 |  | 54.4 ± 25 | 37.5 ± 29 | 45.6 ± 30 |  |  |  |
| COc1cc(C(=O)O)ccc1O [4-hydroxy-3-methoxybenzoic acid] |  |  |  |  |  |  | 44.1 ± 23 | 28.8 ± 29 | 45.4 ± 24 | 54.7 ± 28 | 65.3 ± 26 | 51.9 ± 29 |
| CCCc1ccc(O)cc1 [4-propylphenol] | 47.7 ± 21 |  | 38.2 ± 30 |  | 43.6 ± 27 |  | 36.7 ± 24 | 67.3 ± 24 | 39 ± 33 |  |  |  |
| c1cnc2c(n1)CCCC2 [5,6,7,8-Tetrahydroquinoxaline] | 55.6 ± 25 | 42.9 ± 27 | 68.2 ± 24 | 40.3 ± 31 | 65.5 ± 28 | 44.4 ± 26 |  |  |  |  |  |  |
| CCC1OC(=O)C(O)=C1C (configuration not stated) [5-Ethyl-3-hydroxy-4-methyl-2(5H)-furanone (replicate)] | 65.2 ± 22 | 67.5 ± 26 | 44.9 ± 30 | 58.9 ± 32 | 54.2 ± 32 | 64.6 ± 32 |  |  |  |  |  |  |
| CCC1OC(=O)C(O)=C1C (configuration not stated) [5-Ethyl-3-hydroxy-4-methyl-2(5H)-furanone] | 54.4 ± 22 | 64 ± 22 | 36.6 ± 31 | 48.1 ± 32 | 44.9 ± 29 | 59.7 ± 34 |  |  |  |  |  |  |
| C=CCCCCO [5-Hexen-1-ol] | 49.2 ± 23 |  | 26 ± 25 |  | 42.6 ± 30 |  | 48 ± 28 | 62.2 ± 32 | 43.7 ± 33 |  |  |  |
| C/C=C/C(=O)[C@H](C)CC [5-Methyl-2-hepten-4-one] | 45.3 ± 28 | 64.7 ± 25 | 69.2 ± 27 | 26 ± 28 | 45.1 ± 31 | 40.8 ± 31 |  |  |  |  |  |  |
| Cc1ccc(C=O)o1 [5-Methylfurfural] | 45.8 ± 23 |  | 17.9 ± 24 |  | 36 ± 29 |  | 59.3 ± 24 | 59 ± 31 | 52.6 ± 31 |  |  |  |
| Cc1cccc2nccnc12 [5-Methylquinoxaline] | 45.7 ± 27 | 48.6 ± 30 | 49 ± 31 | 19.4 ± 29 | 51.8 ± 31 | 23.7 ± 32 |  |  |  |  |  |  |
| OCCCCCc1ccccc1 [5-Phenyl-1-pentanol] | 56.8 ± 23 |  | 17.2 ± 22 |  | 34.5 ± 32 |  | 53.6 ± 22 | 53.4 ± 30 | 49.2 ± 29 |  |  |  |
| CC(=O)CC/C=C(\C)CCC=C(C)C [6,10-Dimethyl-5,9-undecadien-2-one] | 53 ± 21 |  | 13 ± 12 |  | 40.3 ± 30 |  | 41.8 ± 23 | 42.1 ± 30 | 43.6 ± 26 |  |  |  |
